In general, solubility refers to the concentration that dissolves in the medium under given conditions.

Results on four compounds are retold here after patent US12102683B2 (Auson Pharmaceuticals, Inc., priority 2022, dated 2024).

Counter-ions that a name gives are not always drawn.

For data set [1] the following is noted: hydrolysate; as worded; cited from earlier work.
The next data set can be described thus: physchem. The text has this:
Therefore, propylene glycol was used as a basic solvent in the formulation of the present patent.

`COc1ccc([C@@H]2Sc3ccccc3N(CCN(C)C)C(=O)[C@@H]2O)cc1` [deacetyldiltiazem]: the “Activity relative to the activity of diltiazem hydrochloride” value in data set [1] is on record as 20%-40%.

For `COc1ccc([C@@H]2Sc3ccccc3N(CCN(C)C)C(=O)[C@@H]2OC(C)=O)cc1` [diltiazem hydrochloride, reference compound], the solubility in the data set “physchem” (organic solvent or mixture) stood at 79 mg/mL.

Consider hydroxypropyl methylcellulose, for which the “Solubility in propylene glycol (in words)” value in the data set “physchem” is recorded as “insoluble”.

For sodium carboxymethylcellulose, the “Solubility in propylene glycol (in words)” value in “physchem” is “insoluble”.
